# Results from PubChem BioAssay (NCI).
#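 The concentration for 50% growth inhibition is given as GI50. The concentration for full growth arrest is given as TGI.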
# Key:
# Assay in all cases: NCI tumour cell line growth inhibition, 384-well format
# NCI-H460 NSCLC = test system: NCI-H460 NSCLC
# HOP-62 NSCLC = test system: HOP-62 NSCLC
# MDA-MB-468 breast = test system: MDA-MB-468 breast
# MCF7 breast = test system: MCF7 breast
# HCT-116 colon = test system: HCT-116 colon
# NCI/ADR-RES ovarian = test system: NCI/ADR-RES ovarian
# UACC-257 melanoma = test system: UACC-257 melanoma
# UO-31 renal = test system: UO-31 renal
# KM12 colon = test system: KM12 colon
# LOX IMVI melanoma = test system: LOX IMVI melanoma
# SK-MEL-5 melanoma = test system: SK-MEL-5 melanoma
# DU-145 prostate = test system: DU-145 prostate
# HCC-2998 colon = test system: HCC-2998 colon
# A498 renal = test system: A498 renal
# HL-60(TB) leukemia = test system: HL-60(TB) leukemia
# UACC-62 melanoma = test system: UACC-62 melanoma
# CCRF-CEM leukemia = test system: CCRF-CEM leukemia
# SNB-75 CNS = test system: SNB-75 CNS
# NCI-H226 lung = test system: NCI-H226 lung
# 786-0 renal = test system: 786-0 renal
# OVCAR-4 ovarian = test system: OVCAR-4 ovarian
# RXF 393 renal = test system: RXF 393 renal
# NCI-H23 lung = test system: NCI-H23 lung
# BT-549 breast = test system: BT-549 breast
# K-562 leukemia = test system: K-562 leukemia
# SF-268 CNS = test system: SF-268 CNS
# SNB-19 CNS = test system: SNB-19 CNS
# U251 glioblastoma = test system: U251 glioblastoma
# HCT-15 colon = test system: HCT-15 colon
# M14 melanoma = test system: M14 melanoma
structure (smiles),measurement,setting,value
Cc1cc(Nc2nc(N[C@@H](C)c3ncc(F)cn3)ncc2Cl)n[nH]1,TGI,NCI-H460 NSCLC,> 100 µM
same,GI50,HOP-62 NSCLC,39.1 µM
same,TGI,HOP-62 NSCLC,> 100 µM
same,GI50,MDA-MB-468 breast,17.3 µM
same,TGI,MDA-MB-468 breast,33.1 µM
same,GI50,MCF7 breast,44.3 µM
same,TGI,MCF7 breast,> 100 µM
same,GI50,HCT-116 colon,17.4 µM
same,TGI,HCT-116 colon,> 100 µM
same,GI50,NCI/ADR-RES ovarian,20.2 µM
same,TGI,NCI/ADR-RES ovarian,60.4 µM
same,GI50,UACC-257 melanoma,> 100 µM
same,TGI,UACC-257 melanoma,> 100 µM
same,GI50,UO-31 renal,36.7 µM
same,TGI,UO-31 renal,> 100 µM
same,GI50,KM12 colon,0.381 µM
same,TGI,KM12 colon,> 100 µM
same,GI50,LOX IMVI melanoma,27.6 µM
same,TGI,LOX IMVI melanoma,71 µM
same,GI50,SK-MEL-5 melanoma,30.5 µM
same,TGI,SK-MEL-5 melanoma,> 100 µM
same,GI50,DU-145 prostate,37.1 µM
same,TGI,DU-145 prostate,> 100 µM
same,GI50,HCC-2998 colon,28.3 µM
same,TGI,HCC-2998 colon,> 100 µM
same,GI50,A498 renal,35.8 µM
same,TGI,A498 renal,> 100 µM
same,GI50,HL-60(TB) leukemia,16 µM
same,TGI,HL-60(TB) leukemia,31 µM
same,GI50,UACC-62 melanoma,40.7 µM
same,TGI,UACC-62 melanoma,> 100 µM
same,GI50,CCRF-CEM leukemia,20.7 µM
same,TGI,CCRF-CEM leukemia,45.1 µM
same,GI50,SNB-75 CNS,8.7 µM
same,TGI,SNB-75 CNS,27.9 µM
same,GI50,NCI-H226 lung,12 µM
same,TGI,NCI-H226 lung,> 100 µM
same,GI50,786-0 renal,33.6 µM
same,TGI,786-0 renal,> 100 µM
same,GI50,OVCAR-4 ovarian,77.8 µM
same,TGI,OVCAR-4 ovarian,> 100 µM
same,GI50,RXF 393 renal,18.9 µM
same,TGI,RXF 393 renal,46 µM
same,GI50,NCI-H23 lung,35.2 µM
same,TGI,NCI-H23 lung,> 100 µM
same,GI50,BT-549 breast,20.7 µM
same,TGI,BT-549 breast,78.1 µM
same,GI50,K-562 leukemia,27.9 µM
same,TGI,K-562 leukemia,> 100 µM
same,GI50,SF-268 CNS,18.4 µM
same,TGI,SF-268 CNS,63.4 µM
same,GI50,SNB-19 CNS,47.5 µM
same,TGI,SNB-19 CNS,> 100 µM
same,GI50,U251 glioblastoma,32.1 µM
same,TGI,U251 glioblastoma,> 100 µM
same,GI50,HCT-15 colon,26.4 µM
same,TGI,HCT-15 colon,> 100 µM
same,GI50,M14 melanoma,61.7 µM
same,TGI,M14 melanoma,> 100 µM
